Data: ChEMBL document CHEMBL1147396, “A new antimalarial quassinoid from Simaba guianensis” (J Nat Prod, 1993)
In brackets after ≈: the same amount, converted by molar mass.

Columns and labels:
Plasmodium falciparum [1] = test: Antimalarial activity against mefloquine-resistant Plasmodium falciparum D6 (Sierra Leone) after 24 to 60 hrs by [G-H3]hypoxanthine uptake; format: functional, organism-based
Plasmodium falciparum [2] = test: Antimalarial activity against chloroquine-resistant Plasmodium falciparum Indochina W2 after 24 to 60 hrs by [G-H3]hypoxanthine uptake; format: functional, organism-based

Compound	IC50 (Plasmodium falciparum [1]) [ng/mL]	IC50 (Plasmodium falciparum [2]) [ng/mL]
C[C@@H]1CC[C@H]2[C@@H](C)C(=O)O[C@@H]3O[C@@]4(C)CC[C@@H]1[C@]32OO4 [ARTEMISININ]	2.1 (≈ 7.44 nM)	
CC(C)=CC(=O)O[C@H]1C(=O)O[C@@H]2C[C@H]3C(C)=CC(=O)[C@@H](O)[C@]3(C)[C@H]3[C@@H](O)[C@H](O)[C@]4(C)OC[C@]32[C@@H]14 [GUTOLACTONE]	4.1 (≈ 8.6 nM)	4 (≈ 8.39 nM)
OC(c1cc(C(F)(F)F)nc2c(C(F)(F)F)cccc12)C1CCCCN1 (configuration not stated) [MEFLOQUINE]		1.5 (≈ 3.96 nM)
C=C[C@H]1CN2CC[C@H]1C[C@H]2[C@H](O)c1ccnc2ccc(OC)cc12 [QUININE]		68.6 (≈ 211 nM)
CC[C@@H](C)C(=O)O[C@H]1C(=O)O[C@@H]2C[C@H]3C(C)=CC(=O)[C@@H](O)[C@]3(C)[C@H]3[C@@H](O)[C@H](O)[C@]4(C)OC[C@]32[C@@H]14 [SIMALIKALACTONE D]	1.5 (≈ 3.13 nM)	1.6 (≈ 3.34 nM)
